In experiment [1] the target is T1, human STING protein (140-379) (Homo sapiens, UniProt Q86WV6, H232R).
T1 construct: 6XHIS-SUMO-hSTING (140-379); made in house; host or cells: BL-21(DE3) E. coli, pET vector
Nature of the experiment: Radiometric filtration binding competition assay (WT_FBA_HIS-SUMO-hSWAT). As to conditions: read-out: WT-hSWAT IC50. The protocol: A radiometric filtration binding competition assay was performed to quantify the binding affinity of compounds of the present application for the human or mouse STING protein, or associated HAQ human isoform. The competition format filtration binding assay detects the ability of small molecule compounds from binding to and inhibiting the subsequent binding of a tritiated [H3] […] The resulting dose response was fit by non-linear regression to determine an IC50 value, from which a Ki value for each compound was extrapolated.
Briefly, the recombinant C-terminal ligand binding domain of the human STING protein (140-379) or mouse STING protein (139-328) [0.5 μM] was incubated in the presence of a compound of the present application (8 point, 2 fold dilution starting at 300 μM) for 30 min or under control conditions. […] The resulting complexes were then filtered, dried, and scintillation fluid was added and the remaining radio signal was measured to determine the degree of compound ligand inhibition. This assay format was optimized for both the WT and HAQ isoforms of the human protein and the mouse orthologue protein.
Parameters optimized: • a. Form of protein: 6×HIS-SUMO tag or untagged • b. Concentration of target protein: Minimum concentration that achieved >80 max signal • c. Assay DMSO concentration: 10%-0.1% • d. Assay Buffer: Base (Tris or phosphate), Salt concentration, +/−Tween (0.1-2%) • e. […] Probe Concentration: Minimum concentration that achieved max assay window • g. Assay Format: Scintillation Proximity Bead or Filtration Binding Plate • h. Assay Plate: 384 vs 96 well format • i. Assay incubation times for successive incubation steps
WT-hSWAT: WT_FBA_HIS-SUMO-hSWAT IC50 (μM) (“WT”=Wild-type); and WT-mSWAT: MOUSE_FBA_HIS-SUMO-mSWAT C50 (μM) which is the mouse isoform of STING protein.

In a further experiment the target is T2, hSTING-R232 (Homo sapiens, UniProt Q86WV6, H232R).
T2 construct: recombinant mouse or human STING protein (aa140-379); 6xHis-SUMO elsewhere) (cleaved yes); made in house
Nature of the experiment: STING Differential Scanning Fluorimetry (DSF) assay, human. It is filed as binding. Particulars: human STING R232-WT, 5 μM protein. The protocol:
A STING DSF assay was performed to determine protein thermostability shift in response to small molecule ligand binding. A STING thermostability shift assay based on differential scanning fluorimetry was used to measure (1) the net shift in melting temperature (ΔTm)between the apo and ligand-bound states of the STING protein and (2) the concentration of the thermal denaturation transition (FC50) as a surrogate measure of binding affinity (Kd). Briefly, recombinant mouse or human STING protein (aa140-379) comprising the C-terminal binding domain (R232-WT) were purified by affinity chromatography and further processed to remove the purification tag, followed by gel filtration to achieve purity >95%. Protein in assay buffer was transferred to a 384 well plate and incubated with the hydrophobic fluorescent dye SYBR Orange. A temperature ramp was applied to the plate and the resulting dye fluorescence was plotted as a function of temperature. The first derivative of this function (dF/dT) was then used to extrapolate the melting temperature of the protein at various concentrations of compound and determine the thermal denaturation profile of a protein/compound complex.
2. 5 μM purified Target STING Protein
4. Buffer: 100 mM NaCl, 30 mM HEPES, pH 7.5
5. Thermal Ramp: 0.5° C./min
7. 11 point, 2 fold dilution, duplicate, 300 μM high concentrations
(Differential scanning fluorimetry follows unfolding on heating by fluorescence.)

Another experiment addresses T3, STING protein (Homo sapiens, UniProt Q86WV6, H232R).
T3 construct: host or cells: THP-1 dual reporter cells, TMEM173 modified from HAQ to R232 (THP1-dual-KI R232)
Kind of experiment: Cell based reporter assay of IRF activation (THP1-dual-KI R232, IRF luciferase). Particulars: THP-1; read-out: THP1-dual-KI R232_IRF(Luciferase)_Activity Maximum measured (%). The text has this: Cell reporter assays were developed to measure the ability of compounds of the application to activate the STING protein and activate both IRF/IFN and the NFkB signaling pathways in the myeloid derived cell line THP-1, which is commercially available from several suppliers. Briefly, THP-1 monocytes were transfected and selected for stable integration of 2 reporter constructs. Clones incorporating stably integrated vectors were further selected by antibiotic resistance to blastocidin and zeocin. The reporter constructs included: (1) firefly luciferase reporter gene under the control of an ISG54 promoter fused to five interferon (IFN)-stimulated response elements to measure IRF transcription factor binding activity and (2) secreted embryonic alkaline phosphatase reporter gene under transcription control of an IFN-beta minimal promoter fused to 5 copies of the NFkB consensus transcriptional response element and 3 copies of the c-Rel binding site.
The resulting THP-1 cell line was further modified to incorporate 3 amino acid point mutations (H71R A230G Q293R). This modification of the native TMEM173 gene in THP-1 cells (HAQ) was designed to produce a cell reporter that expressed the most common allelic variant in the human population (THP-1 R232, available from InvivoGen). Alternatively, the TMEM173 gene was knocked out to provide a congenic control to counter-screen for compound activation that was independent of the STING protein (THP-1 STING KO).
Once cell lines were established, reporter assay protocols were developed and optimized to screen small molecule compounds for agonist activity. Assay optimization for efficacy and Z′ value included titration of the following parameters:
1. No pre-activation with PMA
2. […]cells/well in 96 well plate format
7. Cell Titer Glo reagent (Promega) following supermatant removal
9. 8 point, 2 fold, duplicate starting at 150 μM PP28T

Here are results for 16 compounds from patent US20220251079A1, “BENZO[B][1,8]NAPHTHYRIDINE ACETIC ACID DERIVATIVES AND METHODS OF USE” (STINGTHERA, INC., priority 2019, published 2022).

The structures appear in SMILES notation.

T1 sequence (Q86WV6 140-379 H232R): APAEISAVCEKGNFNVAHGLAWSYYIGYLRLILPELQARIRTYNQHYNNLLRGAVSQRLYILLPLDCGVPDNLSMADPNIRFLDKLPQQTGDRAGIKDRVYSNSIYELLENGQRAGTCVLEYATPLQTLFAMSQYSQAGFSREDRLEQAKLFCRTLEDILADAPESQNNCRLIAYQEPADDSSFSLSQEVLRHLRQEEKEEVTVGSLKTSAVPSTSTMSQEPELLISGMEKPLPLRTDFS
T2 sequence (Q86WV6 140-379 H232R): as above
T3 sequence (Q86WV6 whole entry H232R): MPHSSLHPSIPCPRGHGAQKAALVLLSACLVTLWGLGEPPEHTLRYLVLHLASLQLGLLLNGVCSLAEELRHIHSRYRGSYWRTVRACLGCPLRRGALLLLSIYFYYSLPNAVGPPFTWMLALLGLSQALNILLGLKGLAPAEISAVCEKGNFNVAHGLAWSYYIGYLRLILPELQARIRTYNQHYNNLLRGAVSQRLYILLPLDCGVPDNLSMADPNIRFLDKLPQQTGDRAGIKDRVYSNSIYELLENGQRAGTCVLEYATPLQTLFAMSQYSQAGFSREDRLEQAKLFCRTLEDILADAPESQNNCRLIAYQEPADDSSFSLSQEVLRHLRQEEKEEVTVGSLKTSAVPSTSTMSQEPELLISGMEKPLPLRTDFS

What is called IC50 is the concentration at which inhibition is half-maximal. Regarding `CCOc1c(Cl)ccc2c(=O)c3ccc(C(C)(C)C#N)nc3n(CC(=O)O)c12` [Compound 25, sodium 2-(8-chloro-2-(2-cyanopropan-2-yl)-9-ethoxy-5-oxobenzo[b][1,8]naphthyridin-10(5H)-yl)acetate], in experiment [1], the IC50 is 20 to 100 µM. Besides, at hSTING-R232, the “WT_DSF_hSWAT Tm Shift (° C.)” value is recorded as “D (“D” > 7° C.)”. Further, the Emax at STING protein is > 50%.
Taken in the same sequence, the figures for `CSc1c(Cl)ccc2c(=O)c3ccc(NCC4COC4)nc3n(CC(=O)O)c12` [Compound 55, sodium 2-(8-chloro-9-(methylthio)-2-((oxetan-3-ylmethyl)amino)-5-oxobenzo[b][1,8]naphthyridin-10(5H)-yl)acetate] were 20 to 100 µM, “D (“D” > 7° C.)” and > 50%.
Consider `CN(C)c1ccc2c(=O)c3ccc(Cl)c(-c4ccccc4)c3n(CC(=O)O)c2n1` [Compound 79, 2-(8-chloro-2-(dimethylamino)-5-oxo-9-phenylbenzo[b][1,8]naphthyridin-10(5H)-yl)acetic acid], for which the IC50 in experiment [1] lay in the range of 20 to 100 µM. Also, on hSTING-R232, the “WT_DSF_hSWAT Tm Shift (° C.)” value is given as “D (“D” > 7° C.)”. Further, the Emax on STING protein was > 50%.
Consider `CSc1c(Cl)ccc2c(=O)c3ccc(N(C)C4CC5(CCC5)C4)nc3n(CC(=O)O)c12` [Compound 47, sodium 2-(8-chloro-2-(methyl(spiro[3.3]heptan-2-yl)amino)-9-(methylthio)-5-oxobenzo[b][1,8]naphthyridin-10(5H)-yl)acetate], for which the IC50 in experiment [1] was < 20 µM. At hSTING-R232, the “WT_DSF_hSWAT Tm Shift (° C.)” value is recorded as “D (“D” > 7° C.)”. Further, the Emax on STING protein is > 50%.
On to `COCCN(C)c1nc2c(cc1Cl)c(=O)c1ccc(Cl)c(SC)c1n2CC(=O)O` [Compound 75, sodium 2-(3,8-dichloro-2-((2-methoxyethyl)(methyl)amino)-9-(methylthio)-5-oxobenzo[b][1,8]naphthyridin-10(5H)-yl)acetate], for which the IC50 in experiment [1] was in the range of 20 to 100 µM. For the same compound, on hSTING-R232, the “WT_DSF_hSWAT Tm Shift (° C.)” value is reported as “D (“D” > 7° C.)”. Also, the Emax at STING protein is > 50%.
The like results for `Cc1ccc2c(=O)c3ccc(N(C)C)nc3n(CC(=O)O)c2c1N(C)C` [Compound 61, sodium 2-(2,9-bis(dimethylamino)-8-methyl-5-oxobenzo[b][1,8]naphthyridin-10(5H)-yl)acetate] were, in that order, 20 to 100 µM, “D (“D” > 7° C.)” and > 50%.
The like results for `CO[C@H]1C[C@H](N(C)c2ccc3c(=O)c4ccc(Cl)c(SC)c4n(CC(=O)O)c3n2)C1` (single isomer, unassigned) [Compound 70, 2-(8-chloro-2-(((1r,3r)-3-methoxycyclobutyl)(methyl)amino)-9-(methylthio)-5-oxobenzo[b][1,8]naphthyridin-10(5H)-yl)acetic acid] were, in that order, < 20 µM, “D (“D” > 7° C.)” and > 50%.
With `CCOc1c(Cl)ccc2c(=O)c3ccc(N(CCOC)CC(F)F)nc3n(CC(=O)O)c12` [Compound 52, sodium 2-(8-chloro-2-((2,2-difluoroethyl)(2-methoxyethyl)amino)-9-ethoxy-5-oxobenzo[b][1,8]naphthyridin-10(5H)-yl)acetate], the IC50 in experiment [1] was 100 to 300 µM. In addition, at hSTING-R232, the “WT_DSF_hSWAT Tm Shift (° C.)” value is given as “C (“C” = 2-7° C.)”. Also, the Emax on STING protein is > 50%.
With `CSc1c(Cl)ccc2c(=O)c3ccc(N(CC4CC4)C4CC(F)(F)C4)nc3n(CC(=O)O)c12` [Compound 42, sodium 2-(8-chloro-2-((cyclopropylmethyl)(3,3-difluorocyclobutyl)amino)-9-(methylthio)-5-oxobenzo[b][1,8]naphthyridin-10(5H)-yl)acetate], the IC50 in experiment [1] lay in the range of 20 to 100 µM. Further, the “WT_DSF_hSWAT Tm Shift (° C.)” value at hSTING-R232 is on record as “D (“D” > 7° C.)”. In addition, the Emax at STING protein was > 50%.
The like results for `CSc1c(Cl)ccc2c(=O)c3ccc(N(CC4CC4)C4CC(OC(F)F)C4)nc3n(CC(=O)O)c12` (stereo not drawn) [Compound 46, sodium 2-(8-chloro-2-((cyclopropylmethyl)(3-(difluoromethoxy)cyclobutyl)amino)-9-(methylthio)-5-oxobenzo[b][1,8]naphthyridin-10(5H)-yl)acetate] were, in that order, < 20 µM, “D (“D” > 7° C.)” and > 50%.
Taken in the same sequence, the figures for `CO[C@H]1C[C@@H](N(C)c2ccc3c(=O)c4ccc(C)c(SC)c4n(CC(=O)O)c3n2)C1` [Compound 69, 2-(2-(((1s,3s)-3-methoxycyclobutyl)(methyl)amino)-8-methyl-9-(methylthio)-5-oxobenzo[b][1,8]naphthyridin-10(5H)-yl)acetic acid] were < 20 µM, “D (“D” > 7° C.)” and > 50%.
The like results for `CC(C)(C)c1ccc2c(=O)c3ccc(Cl)c(F)c3n(CC(=O)O)c2n1` [Compound 14] were, in that order, > 300 µM, “B (“B” = 0-2° C.)” and > 50%.
In the case of `CSc1c(C)ccc2c(=O)c3ccc(C(C)(C)C)nc3n(CC(=O)O)c12` [Compound 63, sodium 2-(2-(tert-butyl)-8-methyl-9-(methylthio)-5-oxobenzo[b][1,8]naphthyridin-10(5H)-yl)acetate], the IC50 in experiment [1] is 20 to 100 µM. The “WT_DSF_hSWAT Tm Shift (° C.)” value at hSTING-R232 is listed as “D (“D” > 7° C.)”. Besides, at STING protein, the Emax is > 50%.
As for `CSc1c(Cl)ccc2c(=O)c3ccc(N(C)CC4CCOCC4)nc3n(CC(=O)O)c12` [Compound 27, 2-(8-chloro-2-(methyl((tetrahydro-2H-pyran-4-yl)methyl)amino)-9-(methylthio)-5-oxobenzo[b][1,8]naphthyridin-10(5H)-yl)acetic acid], the IC50 in experiment [1] fell in the range of 20 to 100 µM. Also, at hSTING-R232, the “WT_DSF_hSWAT Tm Shift (° C.)” value is recorded as “D (“D” > 7° C.)”. Further, the Emax on STING protein is > 50%.
Taken in the same sequence, the figures for `CCOc1c(Cl)ccc2c(=O)c3ccc(N(C)C)nc3n(CC(=O)O)c12` [Compound 23, sodium 2-(8-chloro-2-(dimethylamino)-9-ethoxy-5-oxobenzo[b][1,8]naphthyridin-10(5H)-yl)acetate] were 100 to 300 µM, “C (“C” = 2-7° C.)” and > 50%.
On to `CCc1ccc2c(=O)c3ccc(Cl)c(N(C)C)c3n(CC(=O)O)c2n1` [Compound 8], for which the IC50 in experiment [1] is < 20 µM. For the same compound, the “WT_DSF_hSWAT Tm Shift (° C.)” value on hSTING-R232 is “D (“D” > 7° C.)”. Besides, the Emax on STING protein was > 50%.
